Measurements reported in PMC9070039, “Synthesis and evaluation of antimicrobial activity, cytotoxic and pro-apoptotic effects of novel spiro-4H-pyran derivatives” (RSC Advances, 2019).
In brackets after ≈: the same amount, converted by molar mass.

Legend:
S. aureus [1] = assay: Disk diffusion antibacterial test; format: cell-based, Staphylococcus aureus; set-up: key to Inhibition zone (mm) S. aureus: —: inactive at concentration 50 mM; conditions: for Inhibition zone (mm) S. aureus: disc diffusion test, concentration 50 mM; for Sensitivity of S. aureus to compound: there called agar dilution method
Protocol: (§1) Antibacterial effects of spiro[indeno[2,1-c]pyridazine-9,4′-pyran]-3′,4-dicarbonitrile derivatives 5a–j were evaluated in vitro by using disk diffusion method against Gram-positive (S. aureus) and Gram negative (E. coli). The diameter of inhibition zone correlates to the sensitivity of a bacterium to an antibacterial agent. […] E. coli was resistant against all compounds tested (Table 2). Tetracycline and DMSO were used as positive control and negative control respectively. Next, the active compounds were analysed using MIC assay to determine the lowest concentration for inhibition. […] It seems due to the difference in structure of bacterial cell wall (i.e., the presence of outer membrane with lipid, lipopolysaccharide, and lipoprotein content in Gram negative bacteria), E. coli was resistant against the related synthetic compounds.
(§2) Antibacterial activity of the prepared synthetic compounds against the Gram-negative bacteria (E. coli; ATCC: 15922) and the Gram-positive bacteria (S. aureus; PTCC: 1112, International no. ATCC6538P) were examined by disk diffusion assay. Bacterial cultures were obtained from Persian Type Culture Collection, Tehran, Iran (PTCC). Isolated pure colonies from fresh grown bacteria were transferred from the plates into sterile normal saline solution and it was vortexed to form bacterial homogenous suspensions. The turbidity was then adjusted to 0.5 McFarland standard units, and the suspensions were poured over Mueller–Hinton agar (MHA) plates. Sterile filter paper disks were placed over these plates. The sterile disks were impregnated with the tested compounds. Positive control (tetracycline) and negative control ([…]) were used. To determine MIC, the concentrations of tested substance were prepared within the range from 30–5 mM. Incubate in incubator at 37 °C in 24 h for bacteria (Table 2).

LNCaP cells = assay: MTT cytotoxicity assay; format: cell-based; conditions: Homo sapiens, 48 h
Protocol: (§3) At first, in order to compare anti-cancer properties, the synthesized compounds 5a–j were evaluated against A549 cells, MCF-7 cells, A375 cells, PC3 cells, LNCaP cells and HDF cells lines using the MTT colorimetric assay. The activity is expressed as 50% growth inhibitory concentration (IC50) values at 48 h. We used DMSO (1%) as negative control and Etoposide as positive control.
(§4) Human non-small-cell lung cancer A549 cells, human breast cancer MCF-7 cells, human malignant melanoma cells (A375), human prostate cancer cells (PC3 cells, LNCaP cells) and normal cells HDF (human dermal fibroblast) were received from Pasture Institute, Tehran, Iran. MCF-7 cells were grown in RPMI 1640 medium, A549 cells, A375 cells, PC3 cells, LNCaP cells and HDF cells were grown in DMEM medium. All media contain 10% fetal bovine serum (FBS), penicillin G, streptomycin 100 μg mL^−1 and 1% L-glutamine. The cells were cultured and incubated under humidified 5% CO2 atmosphere at 37 °C.
(§5) The effect of compounds treatment on the viability of cancer cell lines was measured by (3-(4,5-dimethylthiazol-2-yl)-2,5-diphenyl tetrazolium bromide or MTT) assay (MTT assay kit, Bio IDEA, CatNo: BI1017, Iran) based on the ability of live cells to cleave the tetrazolium ring to a molecule that absorb at […] as per the manufacturer's instructions.[33] Etoposide (was kindly provided by Dr A. Foroumadi, Tehran medical Science University, Iran) and dimethyl sulfoxide (or DMSO) was used as positive and negative controls, respectively.[34] Briefly, cells were plated in 96-well culture plates (5 × 10^3 cells per well). After 24 h incubation, the cells were treated with different concentrations of the compounds. After 48 h at 37 °C, the medium was removed and 100 μL of MTT reagent (1 mg mL^−1) was added to each well, and cells were further incubated at 37 °C for 4 h. The MTT solution was removed, 50 μL of DMSO was added to each well to dissolve formazan crystals, and the plates were gently shaken for 10 minutes, followed by reading with an ELISA plate reader (BiotekELx 800, USA). The 50% inhibition concentration (IC50) was defined as the concentration that inhibited cell proliferation by 50% when compared to DMSO treated cells (as negative control).

PC3 cells = assay: MTT cytotoxicity assay; format: cell-based; conditions: Homo sapiens, PC-3, 48 h
Protocol: as §3, §4, §5

A375 cells = assay: MTT cytotoxicity assay; format: cell-based; conditions: Homo sapiens, A-375, 48 h
Protocol: as §3, §4, §5

HDF cells = assay: MTT cytotoxicity assay; format: cell-based; conditions: 48 h, normal cells (human dermal fibroblast)
Protocol: as §3, §4, §5

A549 cells = assay: MTT cytotoxicity assay; format: cell-based; conditions: Homo sapiens, 48 h
Protocol: as §3, §4, §5

MCF-7 cells = assay: MTT cytotoxicity assay; format: cell-based; conditions: Homo sapiens, MCF7, 48 h
Protocol: as §3, §4, §5

E. coli = assay: Disk diffusion antibacterial test; format: cell-based, Escherichia coli; set-up: key: —: inactive at concentration 50 mM; conditions: disc diffusion test, concentration 50 mM
Protocol: as §1, §2

S. aureus [2] = assay: MIC determination; format: cell-based; conditions: Staphylococcus aureus; read-out: MICs (mM) S. aureus
Protocol: as §1, §2

| melting point [°C] | MIC (S. aureus [2]) [mM] | Compound | Inhibition zone (mm) S. aureus (S. aureus [1]) | IC50 (LNCaP cells) [µM] | IC50 (PC3 cells) [µM] | IC50 (A375 cells) [µM] | IC50 (HDF cells) [µM] | IC50 (A549 cells) [µM] | IC50 (MCF-7 cells) [µM] | Inhibition zone (mm) E. coli (E. coli) | Sensitivity of S. aureus to compound (S. aureus [1]) |
| --- | --- | --- | --- | --- | --- | --- | --- | --- | --- | --- | --- |
|  | 5 (≈ 2400 µg/mL) | Cc1nn(-c2cccc(Cl)c2)c2c1C1(C(C#N)=C(N)O2)c2ccccc2-c2c1n[nH]c(=O)c2C#N (centres unmarked) [5g, 6′-Amino-1′-(3-chlorophenyl)-3′-methyl-3-oxo-2,3-dihydro-1′H-spiro[indeno[2,1-c]pyridazine-9,4′-pyrano[2,3-c]pyrazole]-4,5′-dicarbonitrile] |  | > 100 | > 100 | > 100 | > 100 | > 100 | > 100 | — | sensitive |
|  | 5 (≈ 1850 µg/mL) | Cc1n[nH]c2c1C1(C(C#N)=C(N)O2)c2ccccc2-c2c1n[nH]c(=O)c2C#N (centres unmarked) [5f, 6′-Amino-3′-methyl-3-oxo-2,3-dihydro-1′H-spiro[indeno[2,1-c]pyridazine-9,4′-pyrano[2,3-c]pyrazole]-4,5′-dicarbonitrile] |  | > 100 | > 100 | > 100 | > 100 | > 100 | > 100 | — | sensitive |
| 298 to 300 |  | N#CC1=C(N)OC2=C(C(=O)c3ccccc32)C12c1ccccc1-c1c2n[nH]c(=O)c1C#N (centres unmarked) [5j, 2-Amino-3′,5-dioxo-2′,3′-dihydro-5H-spiro[indeno[1,2-b]pyran-4,9′-indeno[2,1-c]pyridazine]-3,4′-dicarbonitrile] | — | > 100 | > 100 | > 100 | > 100 | > 100 | > 100 | — |  |
|  | 10 (≈ 4450 µg/mL) | Cc1nn(-c2ccccc2)c2c1C1(C(C#N)=C(N)O2)c2ccccc2-c2c1n[nH]c(=O)c2C#N (centres unmarked) [5e, 6′-Amino-3′-methyl-3-oxo-1′-phenyl-2,3-dihydro-1′H-spiro[indeno[2,1-c]pyridazine-9,4′-pyrano[2,3-c]pyrazole]-4,5′-dicarbonitrile] |  | > 100 | > 100 | > 100 | > 100 | > 100 | > 100 | — | sensitive |
| 308 to 310 | 5 (≈ 2170 µg/mL) | N#CC1=C(N)Oc2c(c(=O)oc3ccccc23)C12c1ccccc1-c1c2n[nH]c(=O)c1C#N (centres unmarked) [5i, 2′-Amino-3,5′-dioxo-2,3-dihydro-5′H-spiro[indeno[2,1-c]pyridazine-9,4′-pyrano[3,2-c]chromene]-3′,4-dicarbonitrile] |  | > 100 | > 100 | > 100 | > 100 | > 100 | > 100 | — | sensitive |

Further lines, the molecule ahead of its results:

| Compound | melting point [°C] | MIC (S. aureus [2]) [mM] | Inhibition zone (mm) S. aureus (S. aureus [1]) | IC50 (LNCaP cells) [µM] | IC50 (PC3 cells) [µM] | IC50 (A375 cells) [µM] | IC50 (HDF cells) [µM] | IC50 (A549 cells) [µM] | IC50 (MCF-7 cells) [µM] | Inhibition zone (mm) E. coli (E. coli) | Sensitivity of S. aureus to compound (S. aureus [1]) |
| --- | --- | --- | --- | --- | --- | --- | --- | --- | --- | --- | --- |
| COC(=O)c1nn(-c2ccccc2)c2c1C1(C(C#N)=C(N)O2)c2ccccc2-c2c1n[nH]c(=O)c2C#N (centres unmarked) [5h, Methyl 6′-amino-4,5′-dicyano-3-oxo-1′-phenyl-2,3-dihydro-1′H-spiro[indeno[2,1-c]pyridazine-9,4′-pyrano[2,3-c]pyrazole]-3′-carboxylate] |  |  | — | > 100 | > 100 | > 100 | > 100 | > 100 | > 100 | — |  |
| N#CC1=C(N)Oc2[nH]c(=O)[nH]c(=O)c2C12c1ccccc1-c1c2n[nH]c(=O)c1C#N (centres unmarked) [5b, 7′-Amino-2′,3,4′-trioxo-1′,2,2′,3,3′,4′-hexahydrospiro[indeno[2,1-c]pyridazine-9,5′-pyrano[2,3-d]pyrimidine]-4,6′-dicarbonitrile] | 322 to 324 | 5 (≈ 2000 µg/mL) |  | > 100 | > 100 | > 100 | > 100 | > 100 | > 100 | — | sensitive |
| COc1cc([C@@H]2c3cc4c(cc3[C@@H](O[C@@H]3O[C@@H]5CO[C@@H](C)O[C@H]5[C@H](O)[C@H]3O)[C@H]3COC(=O)[C@H]23)OCO4)cc(OC)c1O [Etoposide, reference compound] |  |  |  | 90 ± 0.031 | 40 ± 0.062 | 25.31 ± 0.018 | > 100 | 60 ± 0.015 | 30 ± 0.011 |  |  |
| N#CC1=C(N)Oc2[nH]c(=S)[nH]c(=O)c2C12c1ccccc1-c1c2n[nH]c(=O)c1C#N (centres unmarked) [5c, 7′-Amino-3,4′-dioxo-2′-thioxo-1′,2,2′,3,3′,4′-hexahydrospiro[indeno[2,1-c]pyridazine-9,5′-pyrano[2,3-d]pyrimidine]-4,6′-dicarbonitrile] | 305 to 307 | 50 (≈ 20800 µg/mL) |  | > 100 | > 100 | > 100 | > 100 | > 100 | > 100 | — | sensitive |
| CC1(C)CC(=O)C2=C(C1)OC(N)=C(C#N)C21c2ccccc2-c2c1n[nH]c(=O)c2C#N (centres unmarked) [5d, 2-Amino-7,7-dimethyl-3′,5-dioxo-2′,3′,5,6,7,8-hexahydrospiro[chromene-4,9′-indeno[2,1-c]pyridazine]-3,4′-dicarbonitrile] | 315 to 318 |  | — | > 100 | > 100 | > 100 | > 100 | > 100 | > 100 | — |  |
